# In US9802927B2, “Oxadiazine compounds and methods of use thereof” (Denali Therapeutics, Inc., priority 2015, dated 2017):
# Tested on: Aβ42
# Assay: In vitro cell screening assay in H4 cells expressing human APP751: Aβ42 by sandwich ELISA
# Assay type: cell-based
# Settings: compounds 0.003-10 μM, incubated overnight (16-18 h), sandwich ELISA of supernatant
# In short: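 Secreted Aβ42 measured by sandwich ELISA, C-terminal-specific capture and 4G8-HRP detection, TMB read at 450 nm, from supernatants of APP751-expressing H4 cells exposed overnight (16-18 h) to 0.003-10 μM compound in Pro293 medium, 0.33% DMSO. Data scaled between DMSO and DAPT controls; EC50 from variable-slope nonlinear regression.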
EC50 [nM],EC50 (Homo sapiens) [nM],Structure (SMILES)
9.9,–,"COc1nc(C2=NOCC(c3cc(Cl)cc(Cl)c3)N2)ccc1-n1cnc(C)c1 (single isomer, unassigned; (+)) [Example 118B, (+)-5-(3,5-dichlorophenyl)-3-(6-methoxy-5-(4-methyl-1H-imidazol-1-yl)pyridin-2-yl)-5,6-dihydro-4H-1,2,4-oxadiazine]"
386,–,"COc1nc(C2=NOCC(c3nn(C)c4ccc(C(F)(F)F)cc34)N2)ccc1-n1cnc(C)c1 (single isomer, unassigned; (-)) [Example 241A, (−)-3-(6-methoxy-5-(4-methyl-1H-imidazol-1-yl)pyridin-2-yl)-5-(1-methyl-5-(trifluoromethyl)-1H-indazol-3-yl)-5,6-dihydro-4H-1,2,4-oxadiazine]"
107,–,"COc1nc(C2=NOCC(C3CCCC3)N2)ccc1-n1cnc(C)c1 (single isomer, unassigned; (-)) [Example 171B, (−)-5-cyclopentyl-3-(6-methoxy-5-(4-methyl-1H-imidazol-1-yl)pyridin-2-yl)-5,6-dihydro-4H-1,2,4-oxadiazine]"
> 3000,–,"COc1nc(C2=NOCC(c3cc(F)cc(F)c3)N2)ccc1-n1cnc(C)c1 (single isomer, unassigned; (-)) [Example 81A, (−)-5-(3,5-difluorophenyl)-3-(6-methoxy-5-(4-methyl-1H-imidazol-1-yl)pyridin-2-yl)-5,6-dihydro-4H-1,2,4-oxadiazine]"
6.2,–,"COc1nc(C2=NOCC(c3cn(C)c4cc(F)c(F)cc34)N2)ccc1-n1cnc(C)c1 (single isomer, unassigned; (+)) [Example 223B, (+)-5-(5,6-difluoro-1-methyl-1H-indol-3-yl)-3-(6-methoxy-5-(4-methyl-1H-imidazol-1-yl)pyridin-2-yl)-5,6-dihydro-4H-1,2,4-oxadiazine]"
13.1,–,"COc1nc(C2=NOCC(c3ccc(Cl)c(C4CC4)c3)N2)ccc1-n1cnc(C)c1 (single isomer, unassigned; (+)) [Example 239B, (+)-5-(4-chloro-3-cyclopropylphenyl)-3-(6-methoxy-5-(4-methyl-1H-imidazol-1-yl)pyridin-2-yl)-5,6-dihydro-4H-1,2,4-oxadiazine]"
576,–,"COc1nc(C2=NOCC(C3Cc4ccccc4C3)N2)ccc1-n1cnc(C)c1 (single isomer, unassigned; (-)) [Example 246A, (−)-5-(2,3-dihydro-1H-inden-2-yl)-3-(6-methoxy-5-(4-methyl-1H-imidazol-1-yl)pyridin-2-yl)-5,6-dihydro-4H-1,2,4-oxadiazine]"
68.6,–,"COc1nc(C2=NOCC(c3cn(C4CC4)c4cccc(F)c34)N2)ccc1-n1cnc(C)c1 (single isomer, unassigned; (-)) [Example 222B, (−)-5-(1-cyclopropyl-4-fluoro-1H-indol-3-yl)-3-(6-methoxy-5-(4-methyl-1H-imidazol-1-yl)pyridin-2-yl)-5,6-dihydro-4H-1,2,4-oxadiazine]"
199,–,"COc1nc(C2=NOCC(CC(C)C)N2)ccc1-n1cnc(C)c1 (single isomer, unassigned; (-)) [Example 154B, (−)-5-isobutyl-3-(6-methoxy-5-(4-methyl-1H-imidazol-1-yl)pyridin-2-yl)-5,6-dihydro-4H-1,2,4-oxadiazine]"
2340,–,"COc1nc(C2=NOCC(c3cc4cccc(F)c4o3)N2)ccc1-n1cnc(C)c1 (single isomer, unassigned; (-)) [Example 89A, (−)-5-(7-fluorobenzofuran-2-yl)-3-(6-methoxy-5-(4-methyl-1H-imidazol-1-yl)pyridin-2-yl)-5,6-dihydro-4H-1,2,4-oxadiazine]"
> 3000,–,"COc1nc(C2=NOCC(c3cnc4ccc(Cl)cn34)N2)ccc1-n1cnc(C)c1 (single isomer, unassigned; (-)) [Example 269A, (−)-5-(6-chloroimidazo[1,2-a]pyridin-3-yl)-3-(6-methoxy-5-(4-methyl-1H-imidazol-1-yl)pyridin-2-yl)-5,6-dihydro-4H-1,2,4-oxadiazine]"
136,–,"COc1nc(C2=NOCC(c3c[nH]c4ccccc34)N2)ccc1-n1cnc(C)c1 (single isomer, unassigned) [Example 47A, 5-(1H-indol-3-yl)-3-(6-methoxy-5-(4-methyl-1H-imidazol-1-yl)pyridin-2-yl)-5,6-dihydro-4H-1,2,4-oxadiazine]"
2210,–,"COc1nc(C2=NOCC(c3ccc4sc(C)nc4c3)N2)ccc1-n1cnc(C)c1 (single isomer, unassigned; (-)) [Example 215A, (−)-3-(6-methoxy-5-(4-methyl-1H-imidazol-1-yl)pyridin-2-yl)-5-(2-methylbenzo[d]thiazol-5-yl)-5,6-dihydro-4H-1,2,4-oxadiazine]"
930,–,"COc1nc(C2=NOCC(CC(C)C)N2)ccc1-n1cnc(C)c1 (single isomer, unassigned; (+)) [Example 154A, (+)-5-isobutyl-3-(6-methoxy-5-(4-methyl-1H-imidazol-1-yl)pyridin-2-yl)-5,6-dihydro-4H-1,2,4-oxadiazine]"
767,–,"COc1nc(C2=NOCC(c3ccc(C4CC4)cc3)N2)ccc1-n1cnc(C)c1 (single isomer, unassigned; (-)) [Example 116A, (−)-5-(4-cyclopropylphenyl)-3-(6-methoxy-5-(4-methyl-1H-imidazol-1-yl)pyridin-2-yl)-5,6-dihydro-4H-1,2,4-oxadiazine]"
240,–,"COc1nc(C2=NOCC(c3cnc4ccc(Cl)cn34)N2)ccc1-n1cnc(C)c1 (single isomer, unassigned; (+)) [Example 269B, (+)-5-(6-chloroimidazo[1,2-a]pyridin-3-yl)-3-(6-methoxy-5-(4-methyl-1H-imidazol-1-yl)pyridin-2-yl)-5,6-dihydro-4H-1,2,4-oxadiazine]"
1290,–,"COc1nc(C2=NOCC(c3cn(C)c4ccccc34)N2C)ccc1-n1cnc(C)c1 (single isomer, unassigned; (-)) [Example 200B, (−)-3-(6-methoxy-5-(4-methyl-1H-imidazol-1-yl)pyridin-2-yl)-4-methyl-5-(1-methyl-1H-indol-3-yl)-5,6-dihydro-4H-1,2,4-oxadiazine]"
1280,–,"COc1nc(C2=NOCC(c3cc4ccc(Cl)cc4o3)N2)ccc1-n1cnc(C)c1 (single isomer, unassigned; (-)) [Example 78A, (−)-5-(6-chlorobenzofuran-2-yl)-3-(6-methoxy-5-(4-methyl-1H-imidazol-1-yl)pyridin-2-yl)-5,6-dihydro-4H-1,2,4-oxadiazine]"
22.6,–,"COc1nc(C2=NOCC(c3cc(F)cc(Cl)c3)N2)ccc1-n1cnc(C)c1 (single isomer, unassigned; (+)) [Example 111B, (+)-5-(3-chloro-5-fluorophenyl)-3-(6-methoxy-5-(4-methyl-1H-imidazol-1-yl)pyridin-2-yl)-5,6-dihydro-4H-1,2,4-oxadiazine]"
2320,–,"COc1nc(C2=NOCC(c3nc4ccccc4o3)N2)ccc1-n1cnc(C)c1 (single isomer, unassigned; (-)) [Example 203A, (−)-2-(3-(6-methoxy-5-(4-methyl-1H-imidazol-1-yl)pyridin-2-yl)-5,6-dihydro-4H-1,2,4-oxadiazin-5-yl)benzo[d]oxazole]"
> 3000,–,"COc1nc(C2=NOCC(C)N2)ccc1-n1cnc(C)c1 (single isomer, unassigned; (-)) [Example 149B, (−)-3-(6-methoxy-5-(4-methyl-1H-imidazol-1-yl)pyridin-2-yl)-5-methyl-5,6-dihydro-4H-1,2,4-oxadiazine]"
71,–,"COc1nc(C2=NOCC(c3cn(C)c4ccc(Cl)cc34)N2)ccc1-n1cnc(C)c1 (single isomer, unassigned; (-)) [Example 193A, (−)-5-(5-chloro-1-methyl-1H-indol-3-yl)-3-(6-methoxy-5-(4-methyl-1H-imidazol-1-yl)pyridin-2-yl)-5,6-dihydro-4H-1,2,4-oxadiazine]"
1730,–,"COc1nc(C2=NOCC(c3cc4ccccc4n3C)N2)ccc1-n1cnc(C)c1 (single isomer, unassigned; (-)) [Example 205A, (−)-3-(6-methoxy-5-(4-methyl-1H-imidazol-1-yl)pyridin-2-yl)-5-(1-methyl-1H-indol-2-yl)-5,6-dihydro-4H-1,2,4-oxadiazine]"
12.9,–,"COc1nc(C2=NOCC(c3nn(C)c4ccc(Cl)cc34)N2)ccc1-n1cnc(C)c1 (single isomer, unassigned; (+)) [Example 232B, (+)-5-(5-chloro-1-methyl-1H-indazol-3-yl)-3-(6-methoxy-5-(4-methyl-1H-imidazol-1-yl)pyridin-2-yl)-5,6-dihydro-4H-1,2,4-oxadiazine]"
–,38.7,"COc1cc(Cl)c2c(C3CON=C(c4ccc(-n5cnc(C)c5)c(OC)n4)N3)cn(C)c2c1 (single isomer, unassigned; (+)) [Example 261A, (+)-5-(4-chloro-6-methoxy-1-methyl-1H-indol-3-yl)-3-(6-methoxy-5-(4-methyl-1H-imidazol-1-yl)pyridin-2-yl)-5,6-dihydro-4H-1,2,4-oxadiazine]"
> 3000,–,"COc1nc(C2=NOCC(c3ccc4c(c3)OC(F)(F)O4)N2)ccc1-n1cnc(C)c1 (single isomer, unassigned; (-)) [Example 225A]"
21.4,–,"COc1nc(C2=NOCC(c3ccc(Cl)c(C(F)F)c3)N2)ccc1-n1cnc(C)c1 (single isomer, unassigned; (+)) [Example 270B, (+)-5-(4-chloro-3-(difluoromethyl)phenyl)-3-(6-methoxy-5-(4-methyl-1H-imidazol-1-yl)pyridin-2-yl)-5,6-dihydro-4H-1,2,4-oxadiazine]"
> 3000,–,"COc1nc(C2=NOCC(c3ccc(C#N)cc3)N2)ccc1-n1cnc(C)c1 (single isomer, unassigned; (-)) [Example 151A, (−)-4-(3-(6-methoxy-5-(4-methyl-1H-imidazol-1-yl)pyridin-2-yl)-5,6-dihydro-4H-1,2,4-oxadiazin-5-yl) benzonitrile]"
